Measured values as given in ChEMBL document CHEMBL1909511, “Inhalation by design: novel tertiary amine muscarinic M₃ receptor antagonists with slow off-rate binding kinetics for inhaled once-daily treatment of chronic obstructive pulmonary disease” (J Med Chem, 2011).

Tests used:
[1] = target: T1, Muscarinic acetylcholine receptor M3 (Homo sapiens, UniProt P20309); conditions: CHO
[2] = target: T2, Muscarinic acetylcholine receptor M1 (Homo sapiens) (UniProt P11229); assay: Displacement of [3H]-NMS from human recombinant M1 receptor expressed in CHO cells assessed as dissociation half life at 100 fold human M1 receptor binding Ki concentration after 24 hrs by dilution-offset filter binding assay; type: cell-based
T2 sequence (whole entry): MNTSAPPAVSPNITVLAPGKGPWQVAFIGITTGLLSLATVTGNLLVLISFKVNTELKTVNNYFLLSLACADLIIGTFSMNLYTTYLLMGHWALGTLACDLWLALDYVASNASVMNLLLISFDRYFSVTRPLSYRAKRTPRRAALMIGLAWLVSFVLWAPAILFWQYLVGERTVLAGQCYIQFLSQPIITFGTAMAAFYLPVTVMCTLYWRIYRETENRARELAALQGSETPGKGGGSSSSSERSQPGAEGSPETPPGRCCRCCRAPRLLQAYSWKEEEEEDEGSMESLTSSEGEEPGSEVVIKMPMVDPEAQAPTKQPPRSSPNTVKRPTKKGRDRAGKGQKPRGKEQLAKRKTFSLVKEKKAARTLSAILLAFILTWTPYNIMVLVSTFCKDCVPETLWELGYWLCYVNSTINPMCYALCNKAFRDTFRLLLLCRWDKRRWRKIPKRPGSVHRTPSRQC

[3] = target: T3, Muscarinic acetylcholine receptor M2 (Homo sapiens, UniProt P08172); assay: Displacement of [3H]-NMS from human recombinant M2 receptor expressed in CHO cells after 24 hrs by filter binding assay; type: cell-based
T3 sequence (P08172 whole entry): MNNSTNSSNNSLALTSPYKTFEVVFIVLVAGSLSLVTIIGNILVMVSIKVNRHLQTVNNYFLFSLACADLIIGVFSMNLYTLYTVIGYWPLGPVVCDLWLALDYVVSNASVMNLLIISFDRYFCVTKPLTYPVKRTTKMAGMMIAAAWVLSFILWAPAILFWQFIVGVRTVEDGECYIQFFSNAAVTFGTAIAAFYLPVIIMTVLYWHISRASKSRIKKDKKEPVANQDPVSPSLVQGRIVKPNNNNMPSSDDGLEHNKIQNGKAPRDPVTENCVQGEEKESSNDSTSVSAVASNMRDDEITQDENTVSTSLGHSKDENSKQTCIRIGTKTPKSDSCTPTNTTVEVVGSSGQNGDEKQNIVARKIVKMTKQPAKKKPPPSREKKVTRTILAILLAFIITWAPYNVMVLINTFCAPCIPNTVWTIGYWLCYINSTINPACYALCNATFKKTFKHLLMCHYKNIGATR

Oryctolagus cuniculus = assay: Toxicity in rabbit lung cough model assessed as induction of cough production at 2000 ug administered intratracheally; type: organism-based; conditions: in vivo, inhaled_or_intranasal
[4] = target: Muscarinic acetylcholine receptor M3 (Cavia porcellus, UniProt Q8VH26); assay: Antagonist activity at M3 receptor in Dunkin-Hartley guinea pig tracheal strips assessed as inhibition of electrically field-stimulated contractile response after 8 hrs; type: functional
[5] = Volume of distribution at steady state in iv dosed rat; type: ADME, organism-based; conditions: in vivo, read-out: Vdss
[6] = Half life in iv dosed rat; type: ADME, organism-based; conditions: in vivo
[7] = target: T1, Muscarinic acetylcholine receptor M3
[8] = target: Muscarinic acetylcholine receptor M3 (Cavia porcellus) (UniProt Q8VH26); assay: Antagonist activity at M3 receptor in Dunkin-Hartley guinea pig tracheal strips assessed as time taken for electrically field-stimulated contractile response to recover by 25 percent of inhibition at Emax after 2 hrs; type: functional
Canis familiaris [9] = assay: Toxicity in methacholine challenged Beagle dog assessed effect on heart rate at 10 ug intratracheally administered as single dose in micelle solution; type: organism-based, Canis lupus familiaris; conditions: in vivo, inhaled_or_intranasal
Canis familiaris [10] = assay: Bronchodilator activity in methacholine challenged Beagle dog assessed as intrinsic duration of action at 10 ug intratracheally administered as single dose in micelle solution; type: functional, Canis lupus familiaris
Cavia porcellus = assay: Bronchodilator activity in Dunkin-Hartley guinea pig assessed as inhibition of […] lung resistance after cumulative intratracheal administration in micelle solution at hourly intervals challenged each time 1 hr later with methacholine; type: functional, organism-based
[11] = target: T4, Muscarinic acetylcholine receptor M4 (Homo sapiens) (UniProt P08173); assay: Displacement of [3H]-NMS from human recombinant M4 receptor expressed in CHO cells assessed as dissociation half life at 100 fold human M4 receptor binding Ki concentration after 24 hrs by dilution-offset filter binding assay; type: cell-based
T4 sequence (whole entry): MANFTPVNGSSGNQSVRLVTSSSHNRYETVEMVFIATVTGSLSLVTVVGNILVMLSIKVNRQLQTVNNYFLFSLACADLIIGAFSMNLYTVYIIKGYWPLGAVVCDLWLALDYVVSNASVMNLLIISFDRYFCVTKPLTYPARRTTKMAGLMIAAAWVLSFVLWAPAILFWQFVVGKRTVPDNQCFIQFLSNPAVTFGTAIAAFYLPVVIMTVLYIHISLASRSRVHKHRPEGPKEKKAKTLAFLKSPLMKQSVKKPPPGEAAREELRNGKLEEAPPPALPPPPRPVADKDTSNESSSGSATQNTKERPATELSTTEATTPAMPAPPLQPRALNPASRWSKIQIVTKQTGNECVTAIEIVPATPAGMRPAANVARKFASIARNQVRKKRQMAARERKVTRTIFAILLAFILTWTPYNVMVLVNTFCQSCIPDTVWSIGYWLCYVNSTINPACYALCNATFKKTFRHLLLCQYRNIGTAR

Canis familiaris [12] = assay: Toxicity in methacholine challenged Beagle dog assessed effect on heart rate at 3 ug intratracheally administered as single dose in micelle solution; type: organism-based, Canis lupus familiaris; conditions: in vivo, inhaled_or_intranasal

T1 sequence (P20309 whole entry, looked up): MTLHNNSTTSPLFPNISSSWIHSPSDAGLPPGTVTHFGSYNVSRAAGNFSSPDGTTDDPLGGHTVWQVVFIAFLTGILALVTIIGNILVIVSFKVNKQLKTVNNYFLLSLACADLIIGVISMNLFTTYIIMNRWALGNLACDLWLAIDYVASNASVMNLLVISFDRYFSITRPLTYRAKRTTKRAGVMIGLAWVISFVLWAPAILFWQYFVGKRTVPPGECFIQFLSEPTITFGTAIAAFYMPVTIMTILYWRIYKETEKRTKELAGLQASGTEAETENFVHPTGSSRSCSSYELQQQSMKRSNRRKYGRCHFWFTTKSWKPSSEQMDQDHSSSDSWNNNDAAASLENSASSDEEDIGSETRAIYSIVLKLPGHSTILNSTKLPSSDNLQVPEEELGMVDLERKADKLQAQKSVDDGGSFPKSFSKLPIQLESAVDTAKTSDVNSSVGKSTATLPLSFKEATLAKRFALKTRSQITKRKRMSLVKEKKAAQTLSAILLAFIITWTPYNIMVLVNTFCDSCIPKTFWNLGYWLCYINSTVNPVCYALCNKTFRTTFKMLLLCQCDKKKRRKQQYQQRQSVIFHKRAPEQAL
Sequence of Muscarinic acetylcholine receptor M3 (Cavia porcellus) (Q8VH26 1-587): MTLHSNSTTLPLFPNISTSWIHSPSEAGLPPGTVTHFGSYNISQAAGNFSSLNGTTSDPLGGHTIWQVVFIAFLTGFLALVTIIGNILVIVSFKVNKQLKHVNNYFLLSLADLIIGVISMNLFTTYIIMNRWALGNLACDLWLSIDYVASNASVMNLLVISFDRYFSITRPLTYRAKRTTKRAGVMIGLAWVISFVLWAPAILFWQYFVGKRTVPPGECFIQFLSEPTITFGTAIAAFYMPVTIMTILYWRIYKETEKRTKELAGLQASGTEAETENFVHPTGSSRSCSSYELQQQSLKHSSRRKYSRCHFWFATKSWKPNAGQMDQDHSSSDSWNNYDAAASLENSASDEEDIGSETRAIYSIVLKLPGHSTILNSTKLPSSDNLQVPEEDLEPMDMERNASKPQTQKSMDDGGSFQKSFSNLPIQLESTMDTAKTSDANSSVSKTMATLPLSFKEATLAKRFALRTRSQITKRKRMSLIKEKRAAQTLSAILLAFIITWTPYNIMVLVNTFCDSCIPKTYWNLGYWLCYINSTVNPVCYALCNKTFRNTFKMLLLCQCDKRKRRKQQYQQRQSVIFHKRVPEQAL
Sequence of Muscarinic acetylcholine receptor M3 (Cavia porcellus, UniProt Q8VH26) (Q8VH26 whole entry): as the sequence (Q8VH26 1-587) above

T1/2 [1]: > 24 h
T1/2 [2]: 14 h
Ki [3]: 0.137 nM
IC50 [4]: 1.53 nM
Vd [5]: 8.4 L/kg
half-life [6]: 0.9 h
pKb [7]: 9.6
TIME [8]: > 16 h
T1/2 [11]: 9.78 h
Structure (SMILES): CC(C)(CCC(C(N)=O)(c1ccccc1)c1ccccc1)N1CC(Oc2cccc(O)c2)C1 [PF-03635659]
Activity (Oryctolagus cuniculus): Toxic
Activity (Canis familiaris [9]): Non-toxic
Time (Canis familiaris [10]): 32 h
ED50 (Cavia porcellus): 3 µg
Activity (Canis familiaris [12]): Non-toxic
